The source of these data is US20110081315A1, “NOVEL MACROCYCLIC INHIBITORS OF HEPATITIS C VIRUS REPLICATION” (INTERMUNE, INC., priority 2009, published 2011).

Broadly, the IC50 is the concentration needed to halve the response being measured. The EC50 is the concentration that produces a half-maximal response.

Read-outs that look alike come from different tables or passages of the source. Where only a bound is given, the exact number is not on record here.

For data set [1] the following is noted: rcm bond.
In the next data set the target is NS3/NS4 complexes (Hepatitis C virus genotype 1a, UniProt P27958). The data set is described as follows: NS3/NS4 inhibition assay (IC50). The format is biochemical. The settings on record: NS3/NS4 activity; 23° C., 25 μM NS4A peptide. Put shortly: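 NS3/NS4 protease complexes were formed and compound inhibitory concentrations (IC50) measured at ambient temperature (23° C.) in 50 mM Tris-HCl, pH 7.5, with 15% glycerol, 0.6 mM LDAO, 25 μM NS4A peptide and 10 mM DTT. Replicon EC50 values come from a standard HCV replicon cell assay.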
NS3/NS4 complexes, sequence (P27958 1027-1657, one chain of several): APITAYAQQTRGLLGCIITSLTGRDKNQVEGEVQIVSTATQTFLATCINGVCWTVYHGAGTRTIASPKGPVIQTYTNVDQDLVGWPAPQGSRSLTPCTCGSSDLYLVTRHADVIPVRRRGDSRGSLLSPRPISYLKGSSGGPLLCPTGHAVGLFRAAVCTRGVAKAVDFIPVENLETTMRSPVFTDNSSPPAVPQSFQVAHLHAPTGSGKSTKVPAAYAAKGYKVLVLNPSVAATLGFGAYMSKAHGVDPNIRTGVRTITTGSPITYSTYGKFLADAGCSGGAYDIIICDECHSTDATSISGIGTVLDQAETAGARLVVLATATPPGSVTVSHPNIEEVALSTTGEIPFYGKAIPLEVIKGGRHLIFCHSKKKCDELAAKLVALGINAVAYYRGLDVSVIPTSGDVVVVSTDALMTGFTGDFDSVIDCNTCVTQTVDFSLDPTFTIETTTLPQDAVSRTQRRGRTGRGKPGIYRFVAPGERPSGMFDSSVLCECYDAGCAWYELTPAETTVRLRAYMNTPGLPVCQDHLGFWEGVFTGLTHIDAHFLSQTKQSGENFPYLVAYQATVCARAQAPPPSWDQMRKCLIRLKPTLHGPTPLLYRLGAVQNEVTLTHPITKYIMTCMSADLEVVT

A further data set deals with hepatitis C replicon. The experiment in a line: hepatitis C replicon EC50 assay. The format is cell-based. Conditions: Hepatitis C virus; hepatitis C replicon; read-out: EC50. Put shortly: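 First, NS3 and NS4 are complexed; test compounds are then titrated against the complex at room temperature (23° C.) in Tris-HCl buffer, pH 7.5, supplemented with glycerol (15%), LDAO (0.6 mM), DTT (10 mM) and NS4A peptide (25 μM) to give IC50. Separately, replicon cells give EC50.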
(In general: In antiviral work, replicon cells carry a viral genome segment that copies itself.)

Consider `COc1ccc2c(O[C@@H]3C[C@H]4C(=O)N[C@]5(C(=O)NS(=O)(=O)C6(C)CC6)C[C@H]5C=CCCCCC[C@H](Nc5cccc(F)c5)C(=O)N4C3)nc(-c3nc(C(C)C)cs3)nc2c1C`, for which the ring closure, yield of all isomers in data set [1] (from C=CCCCCC[C@H](Nc1cccc(F)c1)C(=O)N1C[C@H](Oc2nc(-c3nc(C(C)C)cs3)nc3c(C)c(OC)ccc23)C[C@H]1C(=O)N[C@]1(C(=O)NS(=O)(=O)C2(C)CC2)C[C@H]1C=C, Zhan catalyst, toluene, 7.24 mM, 65.0 °C, 0.67 h) stood at 24%.
In data set [1] (from C=CCCCCC[C@H](Nc1ccc(C(F)(F)F)cc1)C(=O)N1C[C@H](Oc2ncc3ncn(C(C)C)c3n2)C[C@H]1C(=O)N[C@]1(C(=O)NS(=O)(=O)C2(C)CC2)C[C@H]1C=C, Zhan catalyst, toluene, 7.78 mM, 65.0 °C, 1.5 h), `CC(C)n1cnc2cnc(O[C@@H]3C[C@H]4C(=O)N[C@]5(C(=O)NS(=O)(=O)C6(C)CC6)C[C@H]5C=CCCCCC[C@H](Nc5ccc(C(F)(F)F)cc5)C(=O)N4C3)nc21` registered a ring closure, yield of all isomers of 29%.
As to `CCOC(=O)[C@@]12C[C@H]1C=CCCCCN(c1ccccc1)C(=O)[C@@H]1C[C@@H](O)C[C@H]1C(=O)N2`, the ring closure, yield of all isomers in data set [1] (from C=CCCCCN(C(=O)[C@@H]1C[C@@H](O)C[C@H]1C(=O)N[C@]1(C(=O)OCC)C[C@H]1C=C)c1ccccc1, Hoveyda-Grubbs 2nd generation, DCE, 0.167 mM, 83.0 °C, 16.0 h) was found to be 94.6%.
Take `COc1ccc2c(O[C@@H]3C[C@H]4C(=O)N[C@]5(C(=O)NS(=O)(=O)C6(C)CC6)C[C@H]5/C=C\CCCCC[C@H](Nc5cccc(C(=O)N6CCNCC6)c5)C(=O)N4C3)cc(-c3nc(C(C)C)cs3)nc2c1C` [Compound 107]: the IC50 at NS3/NS4 complexes is less than 10 nM. Moreover, in the data set with hepatitis C replicon, the EC50 was less than 10 nM.
Molecule `CC(C)n1c(O[C@@H]2C[C@H]3C(=O)N[C@]4(C(=O)NS(=O)(=O)C5(C)CC5)C[C@H]4/C=C\CCCCC[C@H](NC(=O)OC(C)(C)C)C(=O)N3C2)nc2c(-c3cncnc3)cccc21` [Compound 1707] gave an IC50 at NS3/NS4 complexes of less than 10 nM. For the same molecule, the EC50 in the data set on hepatitis C replicon was less than 10 nM.
Molecule `Cc1ccc(-c2csc(-c3cccc4c3nc(O[C@@H]3C[C@H]5C(=O)N[C@]6(C(=O)NS(=O)(=O)N(C)C)C[C@H]6/C=C\CCCCC[C@H](NC(=O)OC(C)(C)C)C(=O)N5C3)n4C(C)C)n2)cc1` [Compound 1746] came in with an IC50 against NS3/NS4 complexes of less than 10 nM. Further, the EC50 in the data set with hepatitis C replicon lay within 10 to 100 nM.
The molecule `CC(C)c1coc(-c2cccc3c2nc(O[C@@H]2C[C@H]4C(=O)N[C@]5(C(=O)NS(=O)(=O)N(C)C)C[C@H]5/C=C\CCCCC[C@H](NC(=O)OC(C)(C)C)C(=O)N4C2)n3C(C)C)n1` [Compound 1435] had an IC50 against NS3/NS4 complexes of less than 10 nM. Further, the EC50 with hepatitis C replicon is less than 10 nM.
At NS3/NS4 complexes, `Cc1sc(-c2cccc3c2nc(O[C@@H]2C[C@H]4C(=O)N[C@]5(C(=O)NS(=O)(=O)N(C)C)C[C@H]5/C=C\CCCCC[C@H](NC(=O)OC(C)(C)C)C(=O)N4C2)n3C(C)C)nc1Cc1ccccc1` [Compound 1216] came in with an IC50 of less than 10 nM. Further, in the data set with hepatitis C replicon, the EC50 is less than 10 nM.
For the molecule `COc1cccc(-c2cccc3c2nc(O[C@@H]2C[C@H]4C(=O)N[C@]5(C(=O)NS(=O)(=O)C6(C)CC6)C[C@H]5/C=C\CCCCC[C@H](Nc5ccccc5)C(=O)N4C2)n3C(C)C)c1` [Compound 244], the IC50 against NS3/NS4 complexes is less than 10 nM. Further, in the data set on hepatitis C replicon, the EC50 lay within 10 to 100 nM.
In turn, `CC1(S(=O)(=O)NC(=O)[C@@]23C[C@H]2/C=C\CCCCC[C@H](Nc2ccccc2)C(=O)N2C[C@H](n4nnc5ccccc54)C[C@H]2C(=O)N3)CC1` [Compound 1502] had an IC50 against NS3/NS4 complexes of less than 10 nM. Also, the EC50 in the data set on hepatitis C replicon is greater than 100 nM.
On to `CC(C)n1c(O[C@@H]2C[C@H]3C(=O)N[C@]4(C(=O)NS(=O)(=O)N(C)C)C[C@H]4/C=C\CCCCC[C@H](NC(=O)OC(C)(C)C)C(=O)N3C2)nc2c(-c3ccccc3F)cccc21` [Compound 261], for which the IC50 against NS3/NS4 complexes is less than 10 nM. Moreover, the EC50 with hepatitis C replicon lay in the range of 10 to 100 nM.
For `CCOC(=O)Nc1cccc2c1nc(O[C@@H]1C[C@H]3C(=O)N[C@]4(C(=O)NS(=O)(=O)C5(C)CC5)C[C@H]4/C=C\CCCCC[C@H](Nc4ccccc4)C(=O)N3C1)n2C(C)C` [Compound 1409] the same measures were less than 10 nM and less than 10 nM.
